The text below walks through data of patent US9156845B2, “4-(substituted amino)-7H-pyrrolo[2,3-d] pyrimidines as LRRK2 inhibitors” (Pfizer Inc., priority 2012, dated 2015).

pIC50: −log10 of the molar value.

For experiment [1], the target named is GST-tagged truncated LRRK2 (Homo sapiens (Human), UniProt Q5S007). The experiment in a line: LRRK2 Lantha Screen kinase assay. Format: biochemical. The following applies: geometric mean of 2-5 determinations unless otherwise indicated (a: >=6 determinations; b: single determination); read-out: LRRK2 WT IC50.
The target of the next experiment is mutant G2019S LRRK2 (Homo sapiens (Human), UniProt Q5S007, G2019S). The experiment in a line: LRRK2 Lantha Screen kinase assay, mutant enzyme. It counts as biochemical. The conditions noted are these: geometric mean of 2-5 determinations unless otherwise indicated (a: >=6 determinations; b: single determination).
mutant G2019S LRRK2, sequence (Q5S007 970-2527 G2019S): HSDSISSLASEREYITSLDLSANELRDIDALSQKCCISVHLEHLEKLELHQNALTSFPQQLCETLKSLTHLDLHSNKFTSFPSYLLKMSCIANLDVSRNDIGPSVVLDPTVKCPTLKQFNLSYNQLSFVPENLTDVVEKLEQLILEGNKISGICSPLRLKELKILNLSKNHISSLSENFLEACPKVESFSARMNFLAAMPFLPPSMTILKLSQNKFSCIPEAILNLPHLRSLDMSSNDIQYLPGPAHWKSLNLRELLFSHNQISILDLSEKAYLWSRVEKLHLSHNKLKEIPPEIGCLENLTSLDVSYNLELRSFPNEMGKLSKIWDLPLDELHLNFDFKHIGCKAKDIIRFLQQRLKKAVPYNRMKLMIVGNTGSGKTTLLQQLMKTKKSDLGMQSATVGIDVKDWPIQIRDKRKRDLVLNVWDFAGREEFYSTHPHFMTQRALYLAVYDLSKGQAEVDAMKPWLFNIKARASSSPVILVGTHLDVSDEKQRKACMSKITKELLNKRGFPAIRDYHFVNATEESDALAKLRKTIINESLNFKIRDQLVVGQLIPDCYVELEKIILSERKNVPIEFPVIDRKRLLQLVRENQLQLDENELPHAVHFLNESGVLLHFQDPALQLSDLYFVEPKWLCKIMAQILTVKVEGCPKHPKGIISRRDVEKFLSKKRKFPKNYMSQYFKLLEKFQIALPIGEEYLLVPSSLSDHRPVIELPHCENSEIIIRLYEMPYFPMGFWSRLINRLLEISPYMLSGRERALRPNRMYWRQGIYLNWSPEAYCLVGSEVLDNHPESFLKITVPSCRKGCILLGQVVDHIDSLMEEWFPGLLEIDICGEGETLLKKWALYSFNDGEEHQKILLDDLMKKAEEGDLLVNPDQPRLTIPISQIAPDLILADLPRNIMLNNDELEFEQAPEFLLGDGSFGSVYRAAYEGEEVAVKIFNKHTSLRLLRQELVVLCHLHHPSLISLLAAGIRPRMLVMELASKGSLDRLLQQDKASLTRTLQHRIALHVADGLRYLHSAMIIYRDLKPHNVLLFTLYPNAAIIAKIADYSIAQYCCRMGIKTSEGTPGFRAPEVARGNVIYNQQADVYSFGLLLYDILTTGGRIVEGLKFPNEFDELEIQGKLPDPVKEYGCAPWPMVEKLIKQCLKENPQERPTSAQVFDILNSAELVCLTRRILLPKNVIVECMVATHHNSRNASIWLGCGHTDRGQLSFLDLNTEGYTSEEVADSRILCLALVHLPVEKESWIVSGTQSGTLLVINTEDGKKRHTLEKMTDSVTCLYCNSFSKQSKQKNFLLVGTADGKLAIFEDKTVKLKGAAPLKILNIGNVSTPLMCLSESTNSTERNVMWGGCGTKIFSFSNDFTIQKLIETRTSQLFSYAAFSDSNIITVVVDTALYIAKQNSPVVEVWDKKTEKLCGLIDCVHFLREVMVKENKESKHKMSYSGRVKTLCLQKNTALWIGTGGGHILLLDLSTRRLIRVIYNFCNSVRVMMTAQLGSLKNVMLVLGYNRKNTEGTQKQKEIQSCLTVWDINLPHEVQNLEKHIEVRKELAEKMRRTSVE

GST-tagged truncated LRRK2, sequence (Q5S007 970-2527): as the sequence (Q5S007 970-2527 G2019S) above, with S1050G counted along it

In the case of `C[C@H]1CN(c2ncnc3[nH]cc(-c4cccc(C#N)c4F)c23)CCO1` [Example 180, 2-fluoro-3-{4-[(2S)-2-methylmorpholin-4-yl]-7H-pyrrolo[2,3-d]pyrimidin-5-yl}benzonitrile], the pIC50 in experiment [1] was 8.00; at mutant G2019S LRRK2, 7.21.

`COc1ccc(F)cc1-c1c[nH]c2ncnc(N3CCCC(F)C3)c12` (centres unmarked) [Example 181, 5-(5-fluoro-2-methoxyphenyl)-4-(3-fluoropiperidin-1-yl)-7H-pyrrolo[2,3-d]pyrimidine]: the figures for the pIC50 (in experiment [1]; on mutant G2019S LRRK2) were 7.66 and 7.62, respectively.

Take `C[C@H]1CN(c2ncnc3[nH]cc(-c4cccc(F)c4)c23)CCO1` [Example 182, 5-(3-fluorophenyl)-4-[(2S)-2-methylmorpholin-4-yl]-7H-pyrrolo[2,3-d]pyrimidine]: the pIC50 was 7.42 in experiment [1] and 7.09 against mutant G2019S LRRK2.

Take `COc1ccc(F)cc1-c1c[nH]c2ncnc(N(C)C)c12` [Example 183, 5-(5-fluoro-2-methoxyphenyl)-N,N-dimethyl-7H-pyrrolo[2,3-d]pyrimidin-4-amine]: the pIC50 in experiment [1] was 7.89; at mutant G2019S LRRK2, 7.96.

Turning to `N#Cc1cccc(-c2c[nH]c3ncnc(N4CCCC4)c23)c1F` [Example 184, 2-fluoro-3-[4-(pyrrolidin-1-yl)-7H-pyrrolo[2,3-d]pyrimidin-5-yl]benzonitrile], the pIC50 in experiment [1] is 7.82; against mutant G2019S LRRK2, 7.09.

As to `COc1ccc(F)cc1-c1c[nH]c2ncnc(N3CC[C@H](F)C3)c12` [Example 185, 5-(5-fluoro-2-methoxyphenyl)-4-[(3S)-3-fluoropyrrolidin-1-yl]-7H-pyrrolo[2,3-d]pyrimidine], the pIC50 in experiment [1] is 7.82; against mutant G2019S LRRK2 it was 7.64.

For `Cc1nc(C2CN(c3ncnc4[nH]cc(-c5cccc(C#N)c5F)c34)CCO2)no1` (centres unmarked) [Example 186, 2-fluoro-3-{4-[2-(5-methyl-1,2,4-oxadiazol-3-yl)morpholin-4-yl]-7H-pyrrolo[2,3-d]pyrimidin-5-yl}benzonitrile], the pIC50 in experiment [1] was 7.77; against mutant G2019S LRRK2, 7.05.

As to `Cc1ccnc(-c2c[nH]c3ncnc(N4CCOCC4)c23)c1` [Example 188, 5-(4-methylpyridin-2-yl)-4-(morpholin-4-yl)-7H-pyrrolo[2,3-d]pyrimidine], the pIC50 in experiment [1] was 7.37; against mutant G2019S LRRK2, 7.05.

In the case of `COc1cccc(F)c1-c1c[nH]c2ncnc(N(C)C)c12` [Example 189, 5-(2-fluoro-6-methoxyphenyl)-N,N-dimethyl-7H-pyrrolo[2,3-d]pyrimidin-4-amine], the pIC50 in experiment [1] was 7.40; at mutant G2019S LRRK2, 7.57.

On to `COc1cccc(F)c1-c1c[nH]c2ncnc(N3CCOCC3)c12` [Example 190, 5-(2-fluoro-6-methoxyphenyl)-4-(morpholin-4-yl)-7H-pyrrolo[2,3-d]pyrimidine], for which the negative logarithm of the IC50 (pIC50) in experiment [1] is 7.60; against mutant G2019S LRRK2, 7.47.

`Cc1cc(-c2c[nH]c3ncnc(N4CCOCC4)c23)sn1` [Example 192, 5-(3-methyl-1,2-thiazol-5-yl)-4-(morpholin-4-yl)-7H-pyrrolo[2,3-d]pyrimidine]: the results for the pIC50 (in experiment [1]; at mutant G2019S LRRK2) were 7.64 and 7.14, respectively.

As to `COc1ccc(F)c(Cl)c1-c1c[nH]c2ncnc(N3CCOCC3)c12` [Example 193, 5-(2-chloro-3-fluoro-6-methoxyphenyl)-4-(morpholin-4-yl)-7H-pyrrolo[2,3-d]pyrimidin], the pIC50 in experiment [1] was 7.33; against mutant G2019S LRRK2, 7.29.

As to `N#Cc1cccc(-c2c(C(F)F)[nH]c3ncnc(N4CCOCC4)c23)c1` [Example 198, 3-[6-(Difluoromethyl)-4-(morpholin-4-yl)-7H-pyrrolo[2,3-d]pyrimidin-5-yl]benzonitrile], the figures for the pIC50 (in experiment [1]; against mutant G2019S LRRK2) were 6.90 and 5.97, respectively.

`C1=C(c2c[nH]c3ncnc(N4CCOCC4)c23)COCC1` [Example 199, 5-(5,6-Dihydro-2H-pyran-3-yl)-4-(morpholin-4-yl)-7H-pyrrolo[2,3-d]pyrimidine]: the results for the pIC50 (in experiment [1]; at mutant G2019S LRRK2) were 7.01 and 6.45, respectively.

In the case of `C1=C(c2c[nH]c3ncnc(N4CCOCC4)c23)CCCO1` [Example 200, 5-(3,4-Dihydro-2H-pyran-5-yl)-4-(morpholin-4-yl)-7H-pyrrolo[2,3-d]pyrimidine], the pIC50 in experiment [1] is 7.12; against mutant G2019S LRRK2, 6.78.

On to `c1cc(-c2ncon2)cc(-c2c[nH]c3ncnc(N4CCOCC4)c23)c1` [Example 201, 4-(Morpholin-4-yl)-5-[3-(1,2,4-oxadiazol-3-yl)phenyl]-7H-pyrrolo[2,3-d]pyrimidine], for which the figures for the pIC50 (in experiment [1]; on mutant G2019S LRRK2) were 6.89 and 6.32, respectively.

As for `Cc1cc(C2CN(c3ncnc4[nH]cc(-c5cccc(C#N)c5)c34)CCO2)on1` (centres unmarked) [Example 202, 3-{4-[2-(3-Methyl-1,2-oxazol-5-yl)morpholin-4-yl]-7H-pyrrolo[2,3-d]pyrimidin-5-yl}benzonitrile], the figures for the pIC50 (in experiment [1]; against mutant G2019S LRRK2) were 7.19 and 6.46, respectively.

Turning to `Cc1c(C#N)cccc1-c1c[nH]c2ncnc(N3CCOCC3)c12` [Example 203, 2-methyl-3-[4-(morpholin-4-yl)-7H-pyrrolo[2,3-d]pyrimidin-5-yl]benzonitrile], the pIC50 in experiment [1] is 7.88; against mutant G2019S LRRK2 it was 7.05.

`O=c1cc(-c2c[nH]c3ncnc(N4CCOCC4)c23)cc[nH]1` [Example 204, 4-[4-(morpholin-4-yl)-7H-pyrrolo[2,3-d]pyrimidin-5-yl]pyridin-2(1H)-one]: the figures for the pIC50 (in experiment [1]; on mutant G2019S LRRK2) were 7.93 and 7.49, respectively.

Turning to `c1nc(N2CCOCC2)c2c(-c3cnc4sccn34)c[nH]c2n1` [Example 205, 5-(imidazo[2,1-b][1,3]thiazol-5-yl)-4-(morpholin-4-yl)-7H-pyrrolo[2,3-d]pyrimidine], the pIC50 in experiment [1] was 7.80; on mutant G2019S LRRK2, 7.22.

For the compound `N#Cc1cccc(-c2c[nH]c3ncnc(N4CC5COCC5C4)c23)c1` [Example 207, rel-3-{4-[(3aS,6aS)-tetrahydro-1H-furo[3,4-c]pyrrol-5(3H)-yl]-7H-pyrrolo[2,3-d]pyrimidin-5-yl}benzonitrile], the pIC50 in experiment [1] is 6.65; against mutant G2019S LRRK2, 6.16.

Take `N#Cc1cccc(-c2c[nH]c3ncnc(N4CCOC(C#N)C4)c23)c1` (centres unmarked) [Example 209, 4-[5-(3-cyanophenyl)-7H-pyrrolo[2,3-d]pyrimidin-4-yl]morpholine-2-carbonitrile]: the values for the pIC50 (in experiment [1]; on mutant G2019S LRRK2) were 7.37 and 6.47, respectively.

Regarding `CC1(C)CN(c2ncnc3[nH]cc(-c4cccc(C#N)c4)c23)CCO1` [Example 210, 3-[4-(2,2-dimethylmorpholin-4-yl)-7H-pyrrolo[2,3-d]pyrimidin-5-yl]benzonitrile], the pIC50 is 7.45 in experiment [1] and 6.52 on mutant G2019S LRRK2.

Consider `N#Cc1ccc(-c2c[nH]c3ncnc(N4CCOCC4)c23)s1` [Example 211, 5-[4-(morpholin-4-yl)-7H-pyrrolo[2,3-d]pyrimidin-5-yl]thiophene-2-carbonitrile], for which the pIC50 is 7.66 in experiment [1] and 6.93 against mutant G2019S LRRK2.

For the compound `c1cnn2c(-c3c[nH]c4ncnc(N5CCOCC5)c34)cnc2c1` [Example 212, 5-(imidazo[1,2-b]pyridazin-3-yl)-4-(morpholin-4-yl)-7H-pyrrolo[2,3-d]pyrimidine], the pIC50 in experiment [1] was 8.20; at mutant G2019S LRRK2 it was 7.91.
